In ChEMBL document CHEMBL1142172, “Curing Mycobacterium ulcerans infection in mice with a combination of rifampin-streptomycin or rifampin-amikacin” (2007) one finds Log10 cfu data, which are given here for three compounds.

Molecules are shown by their SMILES.

Test [1] concerns Mycobacterium ulcerans. Description: Antimycobacterial activity in Mycobacterium ulcerans Cu001 infected BALB/c mouse assessed as mean number of CFU per foot-pad at […], sc after 2 weeks. The class given is functional.
Test [2] relates to Mycobacterium ulcerans. Description: Antimycobacterial activity in Mycobacterium ulcerans Cu001 infected BALB/c mouse assessed as mean number of CFU per foot-pad at 10 mg/kg, sc after 2 weeks. The class given is functional. The following applies: route subcutaneous.

`NCC[C@H](O)C(=O)N[C@@H]1C[C@H](N)[C@@H](O[C@H]2O[C@H](CN)[C@@H](O)[C@H](O)[C@H]2O)[C@H](O)[C@H]1O[C@H]1O[C@H](CO)[C@@H](O)[C@H](N)[C@H]1O` [AMIKACIN]: the Log10 cfu in test [1] is reported as 3.92.
`CO[C@H]1/C=C/O[C@@]2(C)Oc3c(C)c(O)c4c(O)c(c(/C=N/N5CCN(C)CC5)c(O)c4c3C2=O)NC(=O)/C(C)=C\C=C\[C@H](C)[C@H](O)[C@@H](C)[C@@H](O)[C@@H](C)[C@H](OC(C)=O)[C@@H]1C` [RIFAMPIN]: in test [2], the Log10 cfu stood at 4.13.
In the case of `CN[C@@H]1[C@H](O[C@H]2[C@H](O[C@H]3[C@H](O)[C@@H](O)[C@H](N=C(N)N)[C@@H](O)[C@@H]3N=C(N)N)O[C@@H](C)[C@]2(O)C=O)O[C@@H](CO)[C@H](O)[C@H]1O` [STREPTOMYCIN], the Log10 cfu in test [1] is 4.13.
